These are literature values, as cited in patent US20230067402A1, “IS[…] T[…] ANALOGS THEREOF” (Biomind Labs Inc, priority 2021, published 2023).

For the data set the following is noted: intramuscular administration.

As to `CN(C)CCc1c[nH]c2ccccc12` [DMT, N,N-dimethyltryptamine], the “time to peak concentration in the blood” value was 10 to 15 min. Also, the “blood level after one hour” value (after one hour) is “undetectable levels”.
